The record followed here is patent US10947229B2, “Dimethyl amino azetidine amides as JAK inhibitors” (THERAVANCE BIOPHARMA R&D IP, LLC, priority 2018, dated 2021).

In one data set the target is JAK2 (Homo sapiens (Human), UniProt O60674). Description: Biochemical JAK kinase assay (LanthaScreen), JAK2. The conditions noted are these: read-out: JAK2 pKi (converted). On the procedure:
Recombinant GST-tagged JAK enzymes and a GFP-tagged STAT1 peptide substrate were obtained from Life Technologies. Serially diluted compounds were pre-incubated with each of the four JAK enzymes and the substrate in white 384-well microplates (Corning) at ambient temperature for 1 h. ATP was subsequently added to initiate the kinase reactions in 10 μL total volume, with 1% DMSO. […] Kinase reactions were allowed to proceed for 1 hour at ambient temperature before a 10 μL preparation of EDTA (10 mM final concentration) and Tb-anti-pSTAT1 ([…]) antibody (Life Technologies, 2 nM final concentration) in TR-FRET dilution buffer (Life Technologies) was added. The plates were allowed to incubate at ambient temperature for 1 h before being read on the EnVision reader (Perkin Elmer). Emission ratio signals (520 nm/495 nm) were recorded and utilized to calculate the percent inhibition values based on DMSO and background controls. For dose-response analysis, percent inhibition data were plotted vs. compound concentrations, and IC50 values were determined from a 4-parameter robust fit model with the Prism software (GraphPad Software). Results were expressed as pIC50 (negative logarithm of IC50) and subsequently converted to pKi (negative logarithm of dissociation constant, Ki) using the Cheng-Prusoff equation. Test compounds having a lower Ki value or higher pKi value in the four JAK assays show greater inhibition of JAK activity.
(In general: Time-resolved FRET reads energy transfer from a long-lived donor to a nearby acceptor.)

Data set [1] in a line: Pharmacokinetics in plasma and lung in mouse. The format is in vivo. The conditions noted are these: single oral aspiration, 0.2 mg/mL, 50 μL. The method, then: Plasma and lung concentrations of test compounds and ratios thereof were determined in the following manner. BALB/c mice from Charles River Laboratories were used in the assay. Test compounds were individually formulated in 20% propylene glycol in pH 4 citrate buffer at a concentration of 0.2 mg/mL and 50 μL of the dosing solution was introduced into the trachea of a mouse by oral aspiration. At various time points (typically 0.167, 2, 6, 24 hr) post dosing, blood samples were removed via cardiac puncture and intact lungs were excised from the mice.

Data set [2] concerns GM-CSF stimulated STAT5 phosphorylation in CD14+ monocytes. Description: Cellular JAK potency assay: inhibition of GM-CSF-induced pSTAT5. In kind it is cell-based. The conditions noted are these: Monocyte; CD14+ monocytes from human whole blood; read-out: pIC50, inhibition of GM-CSF-induced pSTAT5 (converted). The method, then: The potency of test compounds for inhibition of granulocyte-macropage colony-stimulating factor (GM-CSF) stimulated STAT5 phosphorylation was measured in CD14-positive (CD14+) monocytes derived from human whole blood (Stanford Blood Center) using flow cytometry. Because GM-CSF signals through JAK, this assay provides a measure of JAK cellular potency. Monocytes were identified using a fluorescein isothiocyanate (FITC) conjugated anti-CD14 antibody (Clone RM052, Beckman Coulter), and an Alexa Fluor 647 conjugated anti-pSTAT5 antibody (pY694, BD Biosciences) was used to detect STAT5 phosphorylation. Human peripheral blood mononuclear cells (PBMC) were isolated from human whole blood of healthy donors using a ficoll gradient. […] Cells were washed twice with FACS buffer, and then re-suspended in 1:10 […] Alexa Fluor 647:FACS buffer (100 μL) for 30 min at RT in the dark, washed twice in FACS buffer, and analyzed using a MACSQuant flow cytometer (Miltenyi). To determine the inhibitory potency of the test compound, the median fluorescent intensity (MFI) of pSTAT5 was measured in CD14+ monocytes. IC50 values were determined from analysis of the inhibition curves of MFI vs compound concentration. Data are expressed as pIC50 (negative decadic logarithm IC50) values.

Data set [3] has as its system spontaneous periostin secretion. Description: Inhibition of spontaneous periostin secretion in human 3D airway cultures from asthmatic donors. The format is cell-based. The following applies: 192 h, 8 days, 3 or 4 donors. The method, then:
EpiAirway tissue cultures were obtained from Mattek (AIR-100). Cells were derived from asthmatic donors that spontaneously secrete periostin, a matricellular protein associated with Th2 mediated asthma (eosinophilic), and interleukin-6 (IL-6), an inflammatory cytokine that plays a role in both Th2 and non-Th2 related asthma. In a cell culture insert, human derived tracheal/bronchial epithelial cells were grown and differentiated on a porous membrane support, allowing an air-liquid interface with warmed culture medium below the cells and a gaseous test atmosphere above. Tissues were cultured in maintenance media ([…]) in a 37° C., 5% CO2 humidified incubator. Four donors were tested. On Day 0, tissue cultures were treated with test compounds in liquid interface at 10 μM, 1 μM and/or 0.1 μM. Compounds were diluted in dimethyl sulfoxide (DMSO, Sigma) to a final concentration of 0.1%. DMSO at 0.1% was used as a vehicle control. Tissue cultures were maintained for 8 days. Media was replaced every 2 days with fresh media containing compounds. On Day 8, supernatants were collected for analysis. […] Data is expressed as % Inhibition+/-standard deviation (±STDV). Percent inhibition was determined by compound inhibitory potency against spontaneous secretion of periostin and IL-6 compared to vehicle treated cells. […]

JAK2, sequence (O60674 whole entry): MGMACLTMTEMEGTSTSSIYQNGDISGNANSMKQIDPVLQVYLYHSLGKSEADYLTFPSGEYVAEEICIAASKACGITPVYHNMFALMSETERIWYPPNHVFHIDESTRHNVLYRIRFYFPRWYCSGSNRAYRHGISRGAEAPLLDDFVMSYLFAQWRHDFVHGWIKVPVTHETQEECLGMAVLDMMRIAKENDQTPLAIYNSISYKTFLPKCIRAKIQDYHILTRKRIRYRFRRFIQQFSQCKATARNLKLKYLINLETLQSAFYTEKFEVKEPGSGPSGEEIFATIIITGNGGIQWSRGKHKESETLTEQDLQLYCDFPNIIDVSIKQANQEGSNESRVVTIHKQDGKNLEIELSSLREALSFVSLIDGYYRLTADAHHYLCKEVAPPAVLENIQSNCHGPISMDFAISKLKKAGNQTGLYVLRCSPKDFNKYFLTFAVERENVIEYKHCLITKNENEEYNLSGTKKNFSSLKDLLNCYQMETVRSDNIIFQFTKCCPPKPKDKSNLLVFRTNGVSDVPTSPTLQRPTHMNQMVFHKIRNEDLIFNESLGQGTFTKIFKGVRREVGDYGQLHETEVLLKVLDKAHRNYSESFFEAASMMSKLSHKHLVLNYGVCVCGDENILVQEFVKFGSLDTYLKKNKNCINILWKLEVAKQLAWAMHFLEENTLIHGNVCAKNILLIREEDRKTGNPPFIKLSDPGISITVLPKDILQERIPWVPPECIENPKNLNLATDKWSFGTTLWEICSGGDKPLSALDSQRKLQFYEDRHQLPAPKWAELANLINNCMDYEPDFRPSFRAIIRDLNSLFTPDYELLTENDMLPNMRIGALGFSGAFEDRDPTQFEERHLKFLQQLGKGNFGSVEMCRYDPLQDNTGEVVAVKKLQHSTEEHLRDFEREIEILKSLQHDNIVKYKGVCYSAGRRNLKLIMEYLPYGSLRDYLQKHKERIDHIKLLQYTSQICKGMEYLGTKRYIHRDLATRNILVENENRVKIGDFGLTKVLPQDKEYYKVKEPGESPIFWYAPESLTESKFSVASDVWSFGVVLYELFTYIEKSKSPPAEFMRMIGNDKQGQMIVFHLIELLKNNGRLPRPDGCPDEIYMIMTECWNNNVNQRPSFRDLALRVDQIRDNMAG

By inhibition is commonly meant the percentage by which the read-out fell short of the control. A low value points to little suppression. Consider `CCc1cc(O)ccc1-c1ccc2c(-c3nc4c([nH]3)CN(C(C)C)[C@H](C(=O)N3CC(N(C)C)C3)C4)n[nH]c2c1` [Compound 1, (S)-(3-(dimethylamino)azetidin-1-yl)(2-(6-(2-ethyl-4-hydroxyphenyl)-1H-indazol-3-yl)-5-isopropyl-4,5,6,7-tetrahydro-3H-imidazo[4,5-c]pyridin-6-yl)methanone], for which, at JAK2, the Ki is 0.0316 nM. Besides, in data set [1] (BALB/c, in vivo, 10 µg/animal, read-out: Plasma AUC(0-24)), the AUC(0-t) is 943 ng·h/mL. For the same molecule, the “Lung Tissue AUC(0-24)” value in data set [1] is 54.5 µg·h/g. Moreover, in data set [2], the IC50 is 126 nM. Further, testing at 1 µM in data set [3] (1 μM) gave an inhibition of 40%. The molecule further gave an inhibition at 10 µM in data set [3] (10 μM) of 62%.
